Series [1] is described as follows: Solubility of the compound in lactate at pH 5 by UPLC analysis. The settings on record: lactate buffer. Format: physicochemical.
For a further series, the species on record is Homo sapiens. The series is described as follows: Ratio of EC50 for human calcitonin receptor expressed in BHK570 cells to EC50 for human AMY3R (CT+RAMP3) expressed in Hollex1 cells. Format: cell-based.
Series [2] is described as follows: Agonist activity at rat calcitonin receptor expressed in BHK-13 cells assessed as increase in intracellular cAMP concentration incubated for 25 mins by CRE luciferase reporter gene assay. Format: cell-based. Particulars: BHK-13, 25 min. For orientation: Reporter assays use an easily measured gene product as a stand-in for the process of interest.
Series [3] is described as follows: Solubility of the compound in lactate at pH 3 by UPLC analysis. The settings on record: lactate buffer. Format: physicochemical.
A short description of series [4]: Agonist activity at human AMY3R (CT+RAMP3) expressed in Hollex1 cells incubated for 3 hrs by luminescence assay. Format: cell-based. Particulars: Hollex1, 3 h.
A short description of series [5]: Solubility of the compound in bis-tris propane at pH 7.5 by UPLC analysis. Format: physicochemical. The settings on record: bis-tris propane buffer.
The nature of series [6]: Agonist activity at rat AMY3R (CT+RAMP3) expressed in tk-ts13 cells assessed as increase in intracellular cAMP level incuabted for 25 mins by CRE luciferase reporter gene assay. It counts as cell-based. The settings on record: tk-ts13, 25 min. For orientation: cAMP levels reflect the balance of adenylyl cyclase and phosphodiesterase activity.
Series [7] is described as follows: Solubility of the compound in lactate at pH 4 by UPLC analysis. Format: physicochemical. The settings on record: lactate buffer.
In series [8] the target is Insulin (Homo sapiens) (UniProt P01308). The series is described as follows: Effect on insulin (unknown origin) amyloid fibril formation assessed as lag time in glycyl-glycine buffer at pH 4 measured after 45 hrs by thioflavin-T fluorescence assay.
Sequence of Insulin (Homo sapiens) (P01308 whole entry): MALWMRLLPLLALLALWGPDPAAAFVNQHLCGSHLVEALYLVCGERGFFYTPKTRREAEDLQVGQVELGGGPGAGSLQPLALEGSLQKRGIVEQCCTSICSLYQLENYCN
Series [9] is filed under the species Rattus norvegicus. The series is described as follows: Ratio of EC50 for rat calcitonin receptor expressed in BHK-13 cells to EC50 for rat AMY3R (CT+RAMP3) expressed in tk-ts13 cells. It counts as cell-based.
A short description of series [10]: Solubility of the compound in bis-tris propane at pH 6 by UPLC analysis. Format: physicochemical. Particulars: bis-tris propane buffer.
The subject of series [11] is Rattus norvegicus. The series can be described thus: Reduction in food intake in Sprague-Dawley rat at 3 nmol/kg, sc administered as single dose measured after 24 to 48 hrs relative to control. It counts as functional. The arrangement: scale not given: the % may be the effect or the level left. The settings on record: time 24-48 hrs.
For series [12], the system named is Rattus norvegicus. The series is described as follows: Reduction in food intake in Sprague-Dawley rat at 3 nmol/kg, sc administered as single dose measured upto 24 hrs relative to control. It counts as functional. On the set-up: scale not given: the % may be the effect or the level left. The settings on record: time hrs <=24.
Series [13] in a line: Agonist activity at human calcitonin receptor expressed in BHK570 cells assessed as increase in intracellular cAMP concentration incubated for 3 hrs in absence of albumin by CRE luciferase reporter gene assay. Particulars: BHK570, 3 h. It counts as cell-based.
Series [14] can be described thus: Solubility of the compound in bis-tris propane at pH 6.5 by UPLC analysis. It counts as physicochemical. The settings on record: bis-tris propane buffer.
Series [15] in a line: Solubility of the compound in bis-tris propane at pH 8 by UPLC analysis. It counts as physicochemical. The settings on record: bis-tris propane buffer.
The target in series [16] is Insulin (Homo sapiens) (UniProt P01308). The series is described as follows: Effect on insulin (unknown origin) amyloid fibril formation assessed as peptide recovery in glycyl-glycine buffer at pH 4 measured after 45 hrs by thioflavin-T fluorescence assay relative to control. On the set-up: concentration or dose not given beside the values.
Series [17] in a line: Solubility of the compound in bis-tris propane at pH 7 by UPLC analysis. Particulars: bis-tris propane buffer. It counts as physicochemical.
Series [18] in a line: Displacement of [125I]-amylin from rat AMY3R (CTR+RAMP3) expressed in BHK-13 cells measured after 120 mins by scintillation proximity assay. Format: cell-based.
Series [19] is described as follows: Displacement of [125I]-calcitonin from human calcitonin receptor expressed in tk-ts 13 cells measured after 120 mins by scintillation proximity assay. Format: cell-based. The settings on record: tk-ts13.
Series [20] in a line: Displacement of [125I]-amylin from human AMY3R (CTR+RAMP3) expressed in BHK-13 cells measured after 120 mins by scintillation proximity assay. It counts as cell-based.
Series [21] in a line: Displacement of [125I]-calcitonin from rat calcitonin receptor expressed in tk-ts 13 cells measured after 120 mins by scintillation proximity assay. The settings on record: tk-ts13. It counts as cell-based. A general note: Displacement assays read how much labelled ligand stays bound in the presence of the test substance.

In brackets after ≈: the same amount, converted by molar mass. *1 amine or outer side, *2 acyl side, *3 side chain or, on linkers, in order; H or OH if unused. Where a SMILES comes first, the peptide text is derived from it. Bridges are numbered along the chain shown (N, C = ends). [ ]: non-standard residue; d: D form. The star is where a group is joined. X1 = O=C(NC(=O)[C@H](Cc1cnc[nH]1)N[*:1])[C@@H](Cc1cnc[nH]1)C(=O)[*:2]; C20 diacid = O=C(O)CCCCCCCCCCCCCCCCCCC(=O)*; γGlu = O=C(O)[C@H](CCC(=O)[*:2])N[*:1]

Consider `CC[C@H](C)[C@H](NC(=O)[C@@H]1CCCN1C(=O)CNC(=O)[C@H](Cc1ccccc1)NC(=O)[C@H](CC(N)=O)NC(=O)[C@H](CC(N)=O)NC(=O)[C@H](CO)NC(=O)[C@H](CO)NC(=O)[C@H](Cc1cnc[nH]1)NC(=O)[C@H](Cc1cnc[nH]1)NC(=O)[C@H](CC(C)C)NC(=O)[C@H](Cc1ccccc1)NC(=O)[C@H](CCC(=O)O)NC(=O)[C@H](C)NC(=O)[C@H](CC(C)C)NC(=O)[C@H](CCCNC(=N)N)NC(=O)[C@H](CCC(N)=O)NC(=O)[C@@H](NC(=O)[C@H](C)NC(=O)[C@@H]1CSSC[C@H](NC(=O)[C@H](CCCNC(=N)N)NC(=O)CC[C@H](NC(=O)CC[C@H](NC(=O)CCCCCCCCCCCCCCCCCCC(=O)O)C(=O)O)C(=O)O)C(=O)N[C@@H](CC(N)=O)C(=O)N[C@@H]([C@@H](C)O)C(=O)N[C@@H](C)C(=O)N[C@@H]([C@@H](C)O)C(=O)N1)[C@@H](C)O)C(=O)N[C@@H](CC(C)C)C(=O)N1CCC[C@H]1C(=O)N1CCC[C@H]1C(=O)N[C@H](C(=O)N[C@@H](CC(N)=O)C(=O)N[C@H](C(=O)NCC(=O)N[C@@H](CO)C(=O)N[C@@H](CC(N)=O)C(=O)N[C@H](C(=O)N[C@@H](Cc1ccc(O)cc1)C(N)=O)[C@@H](C)O)C(C)C)[C@@H](C)O` ({C20 diacid-γGlu-γGlu}-RCNTATCATQRLAEFLHHSSNNFGPILPPTNVGSNTY-NH2; disulfide 2-7), for which the solubility in series [1], in [3], in series [5], in series [7], in series [10] and in [14] was 200 µM (≈ 923 µg/mL) each time. Further, the solubility in [15] and in series [17] was 200 µM (≈ 923 µg/mL) in each case. Also, the figures for the Ratio EC50 in the series filed under Homo sapiens and in the series filed under Rattus norvegicus [9] were 2 and 5, respectively. Also, the EC50 in [2] was found to be 1.34 nM; in [4] it was 0.129 nM; in [6], 0.277 nM; in series [13] it was 0.205 nM. In addition, the TIME on Insulin (Homo sapiens) [8] is 2 h. Besides, the Activity in the series with Rattus norvegicus [11] was found to be 39%; in the series with Rattus norvegicus [12], 46%; at Insulin (Homo sapiens) [16], 0%.

Regarding `CC[C@H](C)[C@H](NC(=O)[C@@H]1CCCN1C(=O)CNC(=O)[C@H](Cc1ccccc1)NC(=O)[C@H](CC(N)=O)NC(=O)[C@H](CC(N)=O)NC(=O)[C@H](CO)NC(=O)[C@H](CO)NC(=O)[C@H](Cc1cnc[nH]1)NC(=O)[C@H](Cc1cnc[nH]1)NC(=O)[C@H](CC(C)C)NC(=O)[C@H](Cc1ccccc1)NC(=O)[C@H](CCC(=O)O)NC(=O)[C@H](C)NC(=O)[C@H](CC(C)C)NC(=O)[C@H](CCCNC(=N)N)NC(=O)[C@H](CCC(N)=O)NC(=O)[C@@H](NC(=O)[C@H](C)NC(=O)[C@@H]1CSSC[C@H](NC(=O)[C@H](Cc2cnc[nH]2)NC(=O)[C@H](Cc2cnc[nH]2)C(=O)NC(=O)[C@H](Cc2cnc[nH]2)NC(=O)CC[C@H](NC(=O)CCCCCCCCCCCCCCCCCCC(=O)O)C(=O)O)C(=O)N[C@@H](CCCNC(=N)N)C(=O)N[C@@H]([C@@H](C)O)C(=O)N[C@@H](C)C(=O)N[C@@H]([C@@H](C)O)C(=O)N1)[C@@H](C)O)C(=O)N[C@@H](CC(C)C)C(=O)N1CCC[C@H]1C(=O)N1CCC[C@H]1C(=O)N[C@H](C(=O)N[C@@H](CC(N)=O)C(=O)N[C@H](C(=O)NCC(=O)N[C@@H](CO)C(=O)N[C@@H](CC(N)=O)C(=O)N[C@H](C(=O)N[C@@H](Cc1ccc(O)cc1)C(N)=O)[C@@H](C)O)C(C)C)[C@@H](C)O` ({C20 diacid-γGlu}-[X1]HCRTATCATQRLAEFLHHSSNNFGPILPPTNVGSNTY-NH2; disulfide 3-8), the solubility in series [1] stood at 200 µM (≈ 962 µg/mL); in [3] it was 200 µM (≈ 962 µg/mL); in series [5], 1 µM (≈ 4.81 µg/mL); in series [7] it was 200 µM (≈ 962 µg/mL); in [10] it was 200 µM (≈ 962 µg/mL); in [14], 57 µM (≈ 274 µg/mL). Moreover, the solubility was 3 µM (≈ 14.4 µg/mL) in series [15] and 2 µM (≈ 9.62 µg/mL) in series [17]. In addition, the Ratio EC50 in the series listed under Homo sapiens stood at 2; in the series listed under Rattus norvegicus [9], 5. The EC50 came out at 1.29 nM in [2], 0.096 nM in series [4], 0.261 nM in [6] and 0.157 nM in [13]. Further, the TIME at Insulin (Homo sapiens) [8] came to 3 h. Moreover, the Activity was found to be 5% in the series with Rattus norvegicus [11], 26% with Rattus norvegicus [12] and 14% at Insulin (Homo sapiens) [16].

Regarding `CC[C@H](C)[C@H](NC(=O)[C@H](CCC(=O)O)NC(=O)CNC(=O)[C@H](Cc1ccccc1)NC(=O)[C@H](CC(N)=O)NC(=O)[C@H](CC(N)=O)NC(=O)[C@H](CO)NC(=O)[C@H](CO)NC(=O)[C@H](CCCNC(=N)N)NC(=O)[C@H](Cc1cnc[nH]1)NC(=O)[C@H](CC(C)C)NC(=O)[C@H](Cc1ccccc1)NC(=O)[C@H](CCC(=O)O)NC(=O)[C@H](C)NC(=O)[C@H](CC(C)C)NC(=O)[C@H](CCCNC(=N)N)NC(=O)[C@H](CCC(N)=O)NC(=O)[C@@H](NC(=O)[C@H](C)NC(=O)[C@@H]1CSSC[C@H](NC(=O)[C@H](Cc2cnc[nH]2)NC(=O)CC[C@H](NC(=O)CCCCCCCCCCCCCCCCCCC(=O)O)C(=O)O)C(=O)N[C@@H](CC(N)=O)C(=O)N[C@@H]([C@@H](C)O)C(=O)N[C@@H](C)C(=O)N[C@@H]([C@@H](C)O)C(=O)N1)[C@@H](C)O)C(=O)N[C@@H](CC(C)C)C(=O)N[C@@H](CO)C(=O)N[C@@H](CCCNC(=N)N)C(=O)N[C@H](C(=O)N[C@@H](CC(N)=O)C(=O)N[C@H](C(=O)NCC(=O)N[C@@H](CO)C(=O)N[C@@H](CC(N)=O)C(=O)N[C@H](C(=O)N[C@@H](Cc1ccc(O)cc1)C(N)=O)[C@@H](C)O)C(C)C)[C@@H](C)O`, the solubility in series [3] and in series [7] was 200 µM (≈ 913 µg/mL) each time. The figures for the EC50 in series [4] and in series [13] were 0.077 nM and 0.129 nM, respectively. For the same compound, the IC50 in [18] amounted to 0.445 nM; in [19], 1.54 nM; in series [20], 0.818 nM; in [21], 1.37 nM.

Usually solubility stands for the dissolved amount per volume that the medium holds. Broadly, the EC50 is the concentration at which the effect is half-maximal. By IC50 is commonly meant the midpoint of a concentration-inhibition curve.

For the origin of these results see ChEMBL document CHEMBL4842340, “Development of Cagrilintide, a Long-Acting Amylin Analogue” (J Med Chem, 2021).
